Test results taken from US11116767B2, “3,5-disubstituted pyrazoles useful as checkpoint kinase 1 (Chk1) inhibitors, and their preparations and applications” (PHARMAENGINE, INC., priority 2016, dated 2021).

Key:
Chk2 = target: T1, Chk2 (Homo sapiens, UniProt O96017); assay: biochemical; details: ADP-Glo; read-out: Chk2 in vitro enzyme activity (grade)
T1 construct: purchased Carna 02-162

Chk1 = target: T2, Chk1 (Homo sapiens, UniProt O14757); assay: biochemical; details: ADP-Glo; read-out: Chk1 in vitro enzyme activity (grade)
T2 construct: purchased BPS 40039
T2 sequence (O14757 1-476): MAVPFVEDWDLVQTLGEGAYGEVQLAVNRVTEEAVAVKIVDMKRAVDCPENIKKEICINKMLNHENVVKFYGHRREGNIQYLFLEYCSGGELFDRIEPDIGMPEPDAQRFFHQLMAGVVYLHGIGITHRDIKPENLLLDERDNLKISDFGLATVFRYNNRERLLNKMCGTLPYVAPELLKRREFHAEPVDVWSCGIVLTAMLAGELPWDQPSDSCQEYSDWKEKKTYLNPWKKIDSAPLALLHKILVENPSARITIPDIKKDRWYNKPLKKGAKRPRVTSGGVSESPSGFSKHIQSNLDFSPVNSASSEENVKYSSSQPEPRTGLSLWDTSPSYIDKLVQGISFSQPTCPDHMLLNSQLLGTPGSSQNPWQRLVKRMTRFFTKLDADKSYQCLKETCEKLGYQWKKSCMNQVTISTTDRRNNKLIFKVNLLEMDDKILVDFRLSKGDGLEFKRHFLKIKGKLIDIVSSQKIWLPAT

[1] = Human liver S9 metabolic stability; format: in vitro ADME; details: for Percentage Remaining %: 1 μM, 37° C.
Method: Compounds (1 μM) were incubated with human liver S9 (from BD Gentest) at final liver microsomal protein concentration of 0.5 mg/mL for 0, 5, 15, 30, 45 min at 37° C. The remaining compounds in the reaction were measured by LC-MS/MS. The half-life (T½) 0.693/K (K is the rate constant from a plot of ln [concentration] vs. incubation time).

in vivo = assay: in vivo; set-up: species or system Balb/c nude mice; details: mouse, iv, 40 mg/kg
Method: (§1) Female Balb/c nude mice at 7-8 weeks of age (Body weights between 17-18g) were purchased from Hunan SJA Laboratory Animal Co., Ltd. HT-29 cells were cultured in DMEM culture medium containing 10% fetal bovine serum and LoVo cells were cultured in RPMI 1640 culture medium containing 10% fetal bovine serum. The cells were harvested and washed with serum free culture medium. Finally, the cells were suspended at a cell density of […] in serum free culture medium for implantation. 5 million cells per animal suspended in 0.1 ml serum free culture medium and 1.1 matrigel were injected into the right flank of the animals after a one, week acclimation period. When average tumor volume reached acceptable tumor size (100-200 mm^3) and shape, the animals were randomly assigned into treatment groups.
Compound 3 was selected for further PK studies in tumor bearing mice. HT-29 colon cancer cells were implanted to establish the xenograft model in Balb/c nude mice. Twenty-four mice were divided into 8 time groups with n=3/group. Compound 3 was dissolved in 30% SEB-β-CD (Zhiyuan Bio-technology) with 1 molar equivalents of HCl. Each animal was dosed via intravenous administration of Compound 3 at 40 mg/kg. Blood and tumors were collected at various time points after mice were euthanized with CO2. Blood samples were centrifuged at 4° C. immediately after collection. The supernatants were transferred to 1.5 mL of Eppendorf vials as soon as possible and stored at −80° C. in a freezer. Tumor samples were collected and placed in dry ice until transferred to a −80° C. freezer for bioanalysis.

[2] = Pharmacokinetics study in rats, intravenous; format: in vivo, SD rats; details: rat, in vivo, iv
Method: Compounds were formulated in 30% SEB-β-CD (Zhiyuan Bio-technology) with 1 molar equivalents of HCl (pH adjusted to 3-5). Male SD rats (280-350 g) were purchased from Medical Laboratory Animal Center of Guangdong. Three rats were used for each PK study. […] At various time points after compound administration, approximately 0.2˜0.3 mL of blood was collected by cutting the end of tail into tubes containing K2-EDTA. The plasma was separated via centrifugation and stored at −80° C. A PE Sciex API-3000 LC-MS/MS system (Applied Biosystems, Inc.) was used to analyze compound concentrations in plasma.
PK studies of ChK1 inhibitors were conducted in rats after intravenous administration at 10 mg/kg. […]. […]

HT-29 tumor xenograft = assay: HT-29 xenograft model, alone or in combination with CPT-11; format: in vivo, Balb/c nude mice; details: for % T/C value: 40 mg/kg, IV
Method: as §1
In HT-29 tumor xenograft model, the animals were treated with a single compound, a ChK1 inhibitor or CPT-11, or a combination with CPT11. […] The animals well tolerated each treatment in the HT-29 colon cancer in nude mice model.

MDA-MB-231 = assay: Cancer cell growth inhibition assay (CellTiter-Glo), MDA-MB-231; format: cell-based, Human; details: Homo sapiens, MDA-MB-231; 72 hours, cellular ATP content; read-out: MDA-MB-231 anti cell proliferation activity (grade)
Method: Human cancer cell lines were purchased from American Type Culture Collection (Manassas, Va.). The trypsinized cells were diluted to required volume at densities of 44,000 cells/ml. 90 ul cell slurry was dispensed per well in 96-well flat-bottomed plates with the recommended culture medium. The cells were incubated for 24 hours at 37° C. in 5% CO2 under humidified condition. The cells were then incubated with compounds at various concentrations for 72 hours in culture medium supplemented with 0.5% (v/v) FBS. Growth inhibition was assessed by assay of cellular ATP content using CellTiter-Glo reagent to each well. Luminesce was read on Envision. The inhibition rate (%)=(Max signal compound signal)/(Max signal Min signal)×100.

[3] = test system: ChK1 phosphorylation (pChK1 S296) in HT-29 colon cancer cells; assay: Western blot analysis of ChK1 phosphorylation in HT-29 cells with SN-38; format: cell-based, Human; details: HT-29 cells pre-incubated with SN-38 (50 nM) 24 hours, then ChK1 inhibitor 3 hours

T1 sequence (O96017 whole entry): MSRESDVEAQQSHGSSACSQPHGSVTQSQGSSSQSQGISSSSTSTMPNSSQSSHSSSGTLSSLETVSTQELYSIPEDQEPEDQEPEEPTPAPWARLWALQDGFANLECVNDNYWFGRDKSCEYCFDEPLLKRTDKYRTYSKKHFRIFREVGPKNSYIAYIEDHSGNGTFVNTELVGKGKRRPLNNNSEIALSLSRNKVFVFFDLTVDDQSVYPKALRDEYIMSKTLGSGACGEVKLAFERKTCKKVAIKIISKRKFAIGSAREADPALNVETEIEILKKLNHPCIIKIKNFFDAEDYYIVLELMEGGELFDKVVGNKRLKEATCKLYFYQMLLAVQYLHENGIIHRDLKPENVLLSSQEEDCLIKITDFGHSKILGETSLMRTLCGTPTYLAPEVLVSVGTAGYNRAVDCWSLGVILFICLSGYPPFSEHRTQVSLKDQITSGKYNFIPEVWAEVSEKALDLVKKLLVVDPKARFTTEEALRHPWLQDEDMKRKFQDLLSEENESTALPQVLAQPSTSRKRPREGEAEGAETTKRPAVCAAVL

## COc1cc(F)cc(OCCCN)c1-c1cc(Nc2cnc(C#N)cn2)n[nH]1 [Compound 3, 5-(5-(2-(3-Aminopropoxy)-4-fluoro-6-methoxyphenyl)-1H-pyrazol-3-ylamino)pyrazine-2-carbonitrile]
Chk2
  IC50: 0.05 to 0.1 µM
Chk1
  IC50: ≤ 0.001 µM
[1]; 0 min
  Percentage Remaining %: 100.00%
[1]; 5 min
  Percentage Remaining %: 96.98%
[1]; 15 min
  Percentage Remaining %: 94.32%
[1]; 30 min
  Percentage Remaining %: 65.38%
[1]; 45 min
  Percentage Remaining %: 77.05%
[1]; human liver S9
  metabolic stability compared with LY2606368: more metabolic stable than LY2606368
[1]; human liver S9, 1 μM
  half-life at 1 μM: 2.76 h
In vivo; female, Balb/c nude
  Kp: ~6
In vivo; female, Balb/c nude, half-life in blood
  half-life: 6.1 h
In vivo; female, Balb/c nude, half-life in tumor tissues
  half-life: 14 h
In vivo
  distribution into tumor tissues: rapidly distributed into tumor tissues
[2]; male, SD, 10 mg/kg
  AUC(0-inf): 4640 ng·h/mL
  AUC(0-t): 4530 ng·h/mL
  MRT: 2.8 h
  clearance: 38.3 mL/min/kg
  half-life: 3.8 h
[2]; male, SD, 10 mg/kg, Vd
  Vd: 12.3 L/kg
[2]; male, SD, 10 mg/kg, Vss
  Vd: 6.4 L/kg
[2]
  half-life and exposure compared with LY2606368: longer half-life and higher exposure than LY2606368
HT-29 tumor xenograft; 40 mg/kg IV twice a week vs LY-2606368 15 mg/kg IV twice a week
  efficacy compared with LY-2606368, alone or with CPT-11: more efficacious than the reference LY-2606368
HT-29 tumor xenograft; twice a week plus CPT-11 (50 mg/kg, IV, once per week)
  % T/C value: −9%
HT-29 tumor xenograft; alone, twice a week
  % T/C value: 26%
HT-29 tumor xenograft; combination with CPT11
  effect on anti-tumor growth activity of CPT11: enhanced anti-tumor growth activity of CPT11
MDA-MB-231
  IC50: 0.05 to 0.1 µM
[3]
  inhibition of ChK1 phosphorylation (FIG. 2): potently inhibited ChK1 phosphorylation
